Columns and labels:
Assay in all cases: relative viability (nuclei count vs DMSO), 5 days (fraction); higher = more cells survive
BAY61-3606 + Pemetrexed = compound: COC1=C(C=C(C=C1)C2=CC3=NC=CN3C(=N2)NC4=C(C=CC=N4)C(=O)N)OC [BAY61-3606] + Nc1nc2[nH]cc(CCc3ccc(C(=O)N[C@@H](CCC(=O)O)C(=O)O)cc3)c2c(=O)[nH]1 [Pemetrexed] (partner 0.2 µM)
Summary of the method: (§1)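 Five library-drug doses in √10 steps were combined with a fixed anchor-drug dose, or a single drug was given alone, by pin tool to lung cancer cell lines in 1536-well plates the day after seeding. Nuclei were stained and counted after 5 days. Relative viability is the nuclei count in treated wells over that in vehicle wells, taken as the median of duplicate plates.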

BAY61-3606 + Olaparib = compound: COC1=C(C=C(C=C1)C2=CC3=NC=CN3C(=N2)NC4=C(C=CC=N4)C(=O)N)OC [BAY61-3606] + O=C(c1cc(Cc2n[nH]c(=O)c3ccccc23)ccc1F)N1CCN(C(=O)C2CC2)CC1 [Olaparib] (partner 8 µM)
Summary of the method: as §1

Doxorubicin + Pictilisib = compound: COc1cccc2c1C(=O)c1c(O)c3c(c(O)c1C2=O)C[C@@](O)(C(=O)CO)C[C@@H]3O[C@H]1C[C@H](N)[C@H](O)[C@H](C)O1 [Doxorubicin] + CS(=O)(=O)N1CCN(Cc2cc3nc(-c4cccc5[nH]ncc45)nc(N4CCOCC4)c3s2)CC1 [Pictilisib] (partner 1 µM)
Summary of the method: as §1

Doxorubicin + Vorinostat = compound: COc1cccc2c1C(=O)c1c(O)c3c(c(O)c1C2=O)C[C@@](O)(C(=O)CO)C[C@@H]3O[C@H]1C[C@H](N)[C@H](O)[C@H](C)O1 [Doxorubicin] + O=C(CCCCCCC(=O)Nc1ccccc1)NO [Vorinostat] (partner 1 µM)
Summary of the method: as §1

Row | Cell Line | relative viability (BAY61-3606 + Pemetrexed; first compound 0.02 µM) | relative viability (BAY61-3606 + Pemetrexed; first compound 0.06325 µM) | relative viability (BAY61-3606 + Pemetrexed; first compound 0.2 µM) | relative viability (BAY61-3606 + Pemetrexed; first compound 0.6325 µM) | relative viability (BAY61-3606 + Pemetrexed; first compound 2 µM) | relative viability (BAY61-3606 + Olaparib; first compound 0.02 µM) | relative viability (BAY61-3606 + Olaparib; first compound 0.06325 µM) | relative viability (BAY61-3606 + Olaparib; first compound 0.2 µM) | relative viability (BAY61-3606 + Olaparib; first compound 0.6325 µM) | relative viability (BAY61-3606 + Olaparib; first compound 2 µM) | relative viability (Doxorubicin + Pictilisib; first compound 0.001 µM) | relative viability (Doxorubicin + Pictilisib; first compound 0.003162 µM) | relative viability (Doxorubicin + Pictilisib; first compound 0.01 µM) | relative viability (Doxorubicin + Pictilisib; first compound 0.03162 µM) | relative viability (Doxorubicin + Pictilisib; first compound 0.1 µM) | relative viability (Doxorubicin + Vorinostat; first compound 0.001 µM) | relative viability (Doxorubicin + Vorinostat; first compound 0.003162 µM) | relative viability (Doxorubicin + Vorinostat; first compound 0.01 µM) | relative viability (Doxorubicin + Vorinostat; first compound 0.03162 µM) | relative viability (Doxorubicin + Vorinostat; first compound 0.1 µM)
1 | NCI-H2170 | 0.285 | 0.268 | 0.278 | 0.258 | 0.269 | 0.59 | 0.62 | 0.571 | 0.626 | 0.435 | 0.234 | 0.302 | 0.352 | 0.316 | 0.38 | 0.737 | 0.939 | 0.872 | 0.702 | 0.881
2 | NCI-H2228 | 0.326 | 0.325 | 0.391 | 0.393 | 0.369 | 0.879 | 0.73 | 0.889 | 0.693 | 0.412 | 0.154 | 0.272 | 0.295 | 0.153 | 0.117 | 0.759 | 0.43 | 0.46 | 0.374 | 0.518
3 | NCI-H2347 | 0.429 | 0.424 | 0.438 | 0.418 | 0.403 | 0.575 | 0.629 | 0.603 | 0.597 | 0.559 | 0.563 | 0.598 | 0.803 | 0.615 | 0.635 | 0.588 | 0.539 | 0.45 | 0.49 | 0.476
4 | NCI-H2405 | 1.09 | 1.08 | 1.01 | 1.01 | 0.82 | 0.941 | 0.89 | 0.845 | 0.907 | 0.695 | – | 0.432 | 0.507 | 0.356 | 0.276 | 1.2 | 1.17 | 0.971 | 0.804 | 0.323
5 | NCI-H3122 | 0.208 | 0.219 | 0.211 | 0.187 | 0.201 | 0.607 | 0.652 | 0.676 | 0.636 | 0.57 | 0.507 | 0.62 | 0.566 | 0.527 | 0.611 | 0.839 | 0.982 | 0.853 | 0.907 | 0.998
6 | PC-3 [JPC-3] | 1.12 | 1.05 | 1.21 | 1.13 | 1.04 | 1.25 | 1.16 | 1.17 | 1.17 | 1.06 | 0.774 | 0.842 | 0.758 | 0.713 | 0.702 | 1.02 | 0.946 | 0.824 | 0.747 | 0.416
7 | PC-14 | 0.159 | 0.136 | 0.134 | 0.137 | 0.148 | – | 0.284 | 0.212 | 0.235 | 0.204 | 0.619 | 0.926 | 0.809 | 0.568 | 0.663 | 0.655 | 0.781 | 0.709 | 0.182 | 0.0946
8 | RERF-LC-KJ | 0.467 | 0.463 | 0.501 | 0.484 | 0.432 | 0.878 | 0.899 | 1.07 | 0.872 | 0.779 | 0.531 | 0.54 | 0.595 | 0.501 | 0.48 | 0.672 | 0.721 | 0.632 | 0.469 | 0.487
9 | SK-LU-1 | 0.974 | 1.02 | 1.01 | 0.968 | 0.661 | 0.599 | 0.458 | 0.646 | 0.429 | 0.355 | 0.571 | 0.562 | 0.434 | 0.324 | 0.303 | 0.719 | 0.87 | 0.674 | 0.494 | 0.461
10 | SK-MES-1 | 1.03 | 0.909 | 0.869 | 0.88 | 0.713 | 0.679 | 0.786 | 0.606 | 0.688 | 0.31 | 0.368 | 0.395 | 0.362 | 0.342 | 0.204 | 1.04 | 1.15 | 0.996 | 0.251 | 0.233
11 | SW 1573 | 0.924 | 0.833 | 0.804 | 0.916 | 0.53 | 0.553 | 0.455 | 0.424 | 0.542 | 0.259 | 0.512 | 0.46 | 0.424 | 0.332 | 0.258 | 0.725 | 0.481 | 0.233 | 0.109 | 0.104

— the supplement of paper PMC10307832
